The record followed here is patent US12208080B2, “Compositions and methods for modulation of extracellular vesicle release and treatment of neurological disorders” (GEORGE MASON RESEARCH FOUNDATION, INC., priority 2018, dated 2025).

In assay [1] the test system is autophagy proteins (p62 and LC3) in U1 cells. The experiment in a line: Autophagy proteins over time in U1 cells and their EVs (Western blot). Type of assay: cell-based. How it is done:
FIGS. 18A-18B are gels showing CBD promotes autophagy turnover, resulting in a decrease in extracellular autophagosomal secretion. A) U1 cells (1×10^6) were treated±CBD (10 μM) for the following incubation periods: 0, 6, 24, and 48 hours. Cells were pelleted and lysed, exosomes from supernatants were enriched with NT80/82 beads overnight at 4° C. Samples were run through SDS-PAGE and western blotted for autophagy proteins (p62 and LC3), and Actin. B) U1 cells (1×10^6) were treated±10 μM CBD (every day), Rapamycin (50 nM), INK128 (50 nM), Bafilomycin A1 (50 nM), SB 203580 (20 μM), Wortmannin (2 nM) for a 5-day incubation period. Cells were pelleted and lysed, exosomes from supernatants were enriched using NT80/82 beads overnight at 4° C. Samples were run through SDS-PAGE and western blotted for autophagy proteins (p62, LC3, ATG12-ATG5, ATG12, Beclin-1), and Actin.
FIGS. 19A-19E are graphs showing normalized densitometry analysis of CBD treatment of HIV-1 infected monocytes over time and autophagy. Intracellular (A) p62, (B) LC3 I, and (C) LC3 II levels, and extracellular (D) p62, and (E) LC3 I levels were counted on the Western blot data from FIG. 5A through densitometry analysis, followed by normalization to Actin levels.
We have previously described a complex relationship between the intracellular autophagy pathway, secretory autophagy pathway, and EVs, where regulation of the autophagy pathway in infected cells can result in the blocking of viral protein degradation and, in turn, the export of viral products through EVs. Based on this, we next asked whether CBD had any effect on EV release by examining the secretory autophagy pathway. In order to evaluate the levels of intracellular autophagy proteins in HIV-1 infected cells, U1 cells were treated with CBD (10 μM) for 0, 6, 24, and 48 hours, followed by Western blot analysis for autophagosomal markers, p62 and LC3 I/II (FIG. 18A). […] In order to examine any alterations that CBD might have on secretory autophagy in HIV-1 infected monocytes, EVs were enriched from the supernatants using NT80/82 and analyzed by Western blot for changes in secreted autophagosome proteins. […] This is in line with numerous studies which have shown the HIV-1 viral proteins Tat and Nef to be involved in autophagy deregulation in infected cells.

For assay [2], the system named is HIV-1 infected primary macrophages. Briefly: RT-qPCR of EV-associated viral RNA from HIV-1 infected primary macrophages. Type of assay: cell-based. Conditions: 1, 5, 10 uM. The procedure: FIGS. 11A-11B are graphs showing CBD lowers viral RNAs in EVs released from HIV-1 infected primary macrophages. Primary PBMCs were purchased (Precision For Medicine, Frederick, Md.) and cultured in vitro first with PMA/GM-CSF for 3 days to obtain macrophages, and were then infected with HIV-1 89.6 strain (MOI.1.0) for 12 days. The macrophages were treated with PMA and GM-CSF during the infection period (added every 3 days into the fresh media). On day 12, all cells were treated with cART (4 antivirals) and kept in culture for another 3 days. On day 15, media was removed and CBD was added for 5 days (1, 5, 10 μM; at 0 and 48 hours). Supernatants were then isolated and exosomes were enriched using NT80/82 beads overnight at 4° C. […]
To examine whether the same trend could be observed in a primary cell model, three independent HIV-1 infected primary macrophage cell cultures were treated with a titration of CBD (1, 5, and 10 uM). EVs were enriched from the extracellular supernatant using NT80/82 beads and analyzed for HIV-1 TAR and env (FIG. 11). […] To apply these findings to in vivo HIV-1 infection, total EVs were enriched from plasma samples from 15 individuals; 5 healthy donors, 5 HIV-1 positive donors, and 5 HIV-1 positive donors who used Cannabis, were trapped using NT80/82 particles and analyzed via Western blot for the presence of HIV-1 Nef protein.
Background: In qPCR the cycle at which signal appears reflects the starting amount.

`C=C(C)[C@@H]1CCC(C)=C[C@H]1c1c(O)cc(CCCCC)cc1O` [CBD, 2-[1R-3-methyl-6R-(1-methylethenyl)-2-cyclohexen-1-yl]-5-pentyl-1,3-benzenediol]: the “LC3 I in secreted EVs” value in assay [1] (10 μM, 6, 24, 48 hours vs untreated) was “overall lower level of LC3 I”. In addition, the “intracellular LC3 II” value in assay [1] (10 μM, 6- and 24-hour vs controls) is listed as “higher levels of LC3 II”. The “extracellular (EV) p62” value in assay [1] (10 μM, from the 6-hour time point onwards vs untreated) is given as “lower p62 levels”. Further, the “intracellular p62” value in assay [1] (10 μM, starting at 24-hour, peaking at 48-hour, FIG. 18A) is “time dependent decrease”. For the same compound, the “intracellular LC3 I” value in assay [1] (10 μM, up to 24 hours vs untreated) was “decrease in LC3 I levels”. For the same compound, in assay [2] (three primary macrophage cultures, FIG. 11A), the “TAR RNA within EVs” value is “statistically significant decrease”. The “env RNA in secreted EVs” value in assay [2] (two out of three infected primary macrophages, FIG. 11B) was “statistically significant decreasing trend”.
